# Structures can show the parent of a compound that is named as a salt.
# Molecular target: isolated kinase domain of the human c-kit receptor (Homo sapiens (Human), UniProt P10721)
# Assay: c-Kit Fluorescence Polarization Kinase Assay
# Type: biochemical
# Conditions: 1 nM c-kit, 50 uM ATP, 45 minutes at room temperature; uncertainty +10%
# Experimental: c-Kit Fluorescence Polarization Kinase Assay
# The c-kit assay utilized the fluorescein-labeled phosphopeptide and the anti-phosphotyrosine antibody included in the Panvera Phospho-Tyrosine Kinase Kit (Green) supplied by Invitrogen. When c-kit phosphorylated the poly Glu4Tyr, the fluorescein-labeled phosphopeptide was displaced from the anti-phosphotyrosine antibody by the phosphorylated poly Glu4Tyr, thus decreasing the FP value. The c-kit kinase reaction was incubated at room temperature for 45 minutes under the following conditions: 1 nM c-kit (ProQinase, lot SP005), 100 ug/mL poly Glu4Tyr, 50 uM ATP, 5 mM MgCl2, 1 mM DTT, 0.01% Tween-20, 1% DMSO or compound in […], pH 7.5. The kinase reaction was stopped with the addition of EDTA. The fluorescein-labeled phosphopeptide and the anti-phosphotyrosine antibody were added and incubated for 30 minutes at room temperature and fluorescence polarization was read. Data points were an average of triplicate samples. Inhibition and IC50 data analysis were done with GraphPad Prism using a non-linear regression fit with a multiparamater, sigmoidal dose-response (variable slope) equation.
# Chain of isolated kinase domain of the human c-kit receptor (P10721 589-937): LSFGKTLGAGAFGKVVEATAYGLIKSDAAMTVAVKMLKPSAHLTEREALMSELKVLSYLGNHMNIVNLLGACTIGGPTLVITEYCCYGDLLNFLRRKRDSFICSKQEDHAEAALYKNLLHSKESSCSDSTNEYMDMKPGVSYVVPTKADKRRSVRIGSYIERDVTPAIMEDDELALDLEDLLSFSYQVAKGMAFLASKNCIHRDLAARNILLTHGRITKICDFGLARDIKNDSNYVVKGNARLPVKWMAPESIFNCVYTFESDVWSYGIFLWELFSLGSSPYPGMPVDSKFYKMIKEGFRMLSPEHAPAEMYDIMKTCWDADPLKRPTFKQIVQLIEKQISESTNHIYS
row,SMILES,IC50 [nM]
1,"N#Cc1c[nH]c(C(=O)Nc2ccc(C3CCN(C(=O)CCN4CCOCC4)CC3)cc2C2=CCCCC2)n1 [Compound 8, 4-Cyano-1H-imidazole-2-carboxylic acid{2-cyclohex-1-enyl-4-[1-(3-morpholin-4-yl-propionyl)-piperidin-4-yl]-phenyl}-amide]",42
2,"CN1CCN(c2ccc(NC(=O)c3ccc(C#N)o3)c(C3=CCCCC3)c2)CC1 [Compound 11, 5-Cyano-furan-2-carboxylic acid [2-cyclohex-1-enyl-4-(4-methyl-piperazin-1-yl)-phenyl]-amide]",150
3,CN1CCN(c2ccc(NC(=O)c3ccc(C#N)o3)c(C3=CCOCC3)c2)CC1 [Compound 12],> 250
4,"N#Cc1c[nH]c(C(=O)Nc2ccc(C3CCNCC3)cc2C2=CCCCC2)c1 [Compound 13, 4-Cyano-1H-pyrrole-2-carboxylic acid (2-cyclohex-1-enyl-4-piperidin-4-yl-phenyl)-amide trifluoroacetic acid salt]",260
5,"N#Cc1c[nH]c(C(=O)Nc2ccc(C3CCNCC3)cc2C2=CCCCC2)n1 [Compound 14, 4-Cyano-1H-imidazole-2-carboxylic acid (2-cyclohex-1-enyl-4-piperidin-4-yl-phenyl)-amide trifluoroacetic acid salt]",71
6,"CC(=O)N1CCC(c2ccc(NC(=O)c3nc(C#N)c[nH]3)c(C3=CCCCC3)c2)CC1 [Compound 16, 4-Cyano-1H-imidazole-2-carboxylic acid [4-(1-acetyl-piperidin-4-yl)-2-cyclohex-1-enyl-phenyl]-amide]",57
7,"N#Cc1c[nH]c(C(=O)Nc2ccc(C3CCN(Cc4ccccn4)CC3)cc2C2=CCCCC2)n1 [Compound 21, 4-Cyano-1H-imidazole-2-carboxylic acid [2-cyclohex-1-enyl-4-(1-pyridin-2-ylmethyl-piperidin-4-yl)-phenyl]-amide trifluoroacetic acid salt]",50
8,"N#Cc1c[nH]c(C(=O)Nc2ccc(C3CCN(CCO)CC3)cc2C2=CCCCC2)n1 [Compound 26, 4-Cyano-1H-imidazole-2-carboxylic acid{2-cyclohex-1-enyl-4-[1-(2-hydroxy-ethyl)-piperidin-4-yl]-phenyl}-amide trifluoroacetic acid salt]",26
9,"N#CCCN1CCC(c2ccc(NC(=O)c3nc(C#N)c[nH]3)c(C3=CCCCC3)c2)CC1 [Compound 27, 4-Cyano-1H-imidazole-2-carboxylic acid {4-[1-(2-cyano-ethyl)-piperidin-4-yl]-2-cyclohex-1-enyl-phenyl}-amide trifluoroacetic acid salt]",80
10,"N#Cc1c[nH]c(C(=O)Nc2ccc(C3CCS(=O)(=O)CC3)cc2C2=CCCCC2)n1 [Compound 35, 4-Cyano-1H-imidazole-2-carboxylic acid [2-cyclohex-1-enyl-4-(1,1-dioxo-hexahydro-1λ^6-thiopyran-4-yl)-phenyl]-amide]",73
11,"CC(=O)N1CCC(c2ccc(NC(=O)c3nc(C#N)c[nH]3)c(C3=CCS(=O)(=O)CC3)c2)CC1 [Compound 37, 4-Cyano-1H-imidazole-2-carboxylic acid [4-(1-acetyl-piperidin-4-yl)-2-(1,1-dioxo-1,2,3,6-tetrahydro-1λ^6-thiopyran-4-yl)-phenyl]-amide]",> 250
12,"N#Cc1c[nH]c(C(=O)Nc2ccc(C3CCN(C(=O)c4cc[n+]([O-])cc4)CC3)cc2C2=CCCCC2)n1 [Compound 41, 4-Cyano-1H-imidazole-2-carboxylic acid {2-cyclohex-1-enyl-4-[1-(1-oxy-pyridine-4-carbonyl)-piperidin-4-yl]-phenyl}-amide]",35
13,"N#Cc1c[nH]c(C(=O)Nc2ccc(C3CCN(CC(=O)O)CC3)cc2C2=CCCCC2)n1 [Compound 47, (4-{4-[(4-Cyano-1H-imidazole-2-carbonyl)-amino]-3-cyclohex-1-enyl-phenyl}-piperidin-1-yl)-acetic acid trifluoroacetic acid salt]",100
14,"CC(C)(N)CC(=O)N1CCC(c2ccc(NC(=O)c3nc(C#N)c[nH]3)c(C3=CCCCC3)c2)CC1 [Compound 48, 4-Cyano-1H-imidazole-2-carboxylic acid {4-[1-(3-amino-3-methyl-butyryl)-piperidin-4-yl]-2-cyclohex-1-enyl-phenyl}-amide trifluoroacetic acid salt]",5
15,"C[C@@H]1CC(c2ccc(NC(=O)c3ncc(C#N)[nH]3)c(C3=CCCCC3)c2)C[C@H](C)N1 (stereo partly drawn) [Compound 51a, 5-Cyano-1H-imidazole-2-carboxylic acid [2-cyclohex-1-enyl-4-(cis-2,6-dimethyl-piperidin-4-yl)-phenyl]-amide bis trifluoroacetic acid salt]",4.3
16,"N#Cc1cnc(C(=O)Nc2ccc(C3CCN(C(=O)[C@H](O)CO)CC3)cc2C2=CCCCC2)[nH]1 [Compound 52, 5-Cyano-1H-imidazole-2-carboxylic acid{2-cyclohex-1-enyl-4-[1-(R)-(+)-(2,3-dihydroxy-propionyl)-piperidin-4-yl]-phenyl}-amide]",8
17,"CN(C)CC(=O)N1CCC(c2ccc(NC(=O)c3nc(C#N)c[nH]3)c(C3=CCC(C)(C)CC3)n2)CC1 [Compound 55, 4-Cyano-1H-imidazole-2-carboxylic acid [1′-(2-dimethylamino-acetyl)-6-(4,4-dimethyl-cyclohex-1-enyl)-1′,2′,3′,4′,5′,6′-hexahydro-[2,4′]bipyridinyl-5-yl]-amide trifluoroacetic acid salt]",12
18,"CC1(C)CC=C(c2nc(C3CCN(CCS(C)(=O)=O)CC3)ccc2NC(=O)c2nc(C#N)c[nH]2)CC1 [Compound 56, 4-Cyano-1H-imidazole-2-carboxylic acid [6-(4,4-dimethyl-cyclohex-1-enyl)-1′-(2-methanesulfonyl-ethyl)-1′,2′,3′,4′,5′,6′-hexhydro-[2,4′]bipyridinyl-5-yl]-amide trifluoroacetic acid salt]",39

# Tested on: BR-1 cells
# Assay: c-Kit BR-1 Assay (inhibition of BR-1 cell proliferation)
# Type: cell-based
# Conditions: Canis lupus familiaris; BR-1 dog mastocytoma line, constitutive-active mutant KIT; 72 hours, Cell TiterGlo
# Experimental: Immediately following plating (time zero), 6 wells containing cells are treated with 100 μl of Promega Cell TiterGlo reagent and incubated 10 min with shaking. The intensity of the Cell TiterGlo signal (1 sec/well) is determined using a luminometer. The remaining cells are cultured 72 hours (37° C. and 5% CO2). Following the 72-hour growth interval, 100 μl of Promega Cell TiterGlo reagent is added to each well. The plates are incubated an additional 10 minutes with shaking and the intensity of the Cell TiterGlo signal (1 sec/well) is determined using a luminometer. Cell proliferation is defined by the difference between the time zero and time 72 hour signals.
row,SMILES,IC50 [nM]
1,"CN(C)CC(=O)N1CCC(c2ccc(NC(=O)c3nc(C#N)c[nH]3)c(C3=CCCCC3)c2)CC1 [Compound 38, 4-Cyano-1H-imidazole-2-carboxylic acid{2-cyclohex-1-enyl-4-[1-(2-dimethylamino-acetyl)-piperidin-4-yl]-phenyl}-amide]",90
2,"CS(=O)(=O)CCN1CCC(c2ccc(NC(=O)c3nc(C#N)c[nH]3)c(C3=CCCCC3)c2)CC1 [Compound 40, 4-Cyano-1H-imidazole-2-carboxylic acid{2-cyclohex-1-enyl-4-[1-(2-methanesulfonyl-ethyl)-piperidin-4-yl]-phenyl}-amide]",250
3,"CC1(C)CC=C(c2nc(C3CCNCC3)ccc2NC(=O)c2nc(C#N)c[nH]2)CC1 [Compound 54, 4-Cyano-1H-imidazole-2-carboxylic acid [6-(4,4-dimethyl-cyclohex-1-enyl)-1′,2′,3′,4′,5′,6′-hexahydro-[2,4′]bipyridinyl-5-yl]-amide trifluoroacetic acid salt]",900
4,"CN(C)CC(=O)N1CCC(c2ccc(NC(=O)c3nc(C#N)c[nH]3)c(C3=CCC(C)(C)CC3)n2)CC1 [Compound 55, 4-Cyano-1H-imidazole-2-carboxylic acid [1′-(2-dimethylamino-acetyl)-6-(4,4-dimethyl-cyclohex-1-enyl)-1′,2′,3′,4′,5′,6′-hexahydro-[2,4′]bipyridinyl-5-yl]-amide trifluoroacetic acid salt]",250
5,"CC1(C)CC=C(c2nc(C3CCN(CCS(C)(=O)=O)CC3)ccc2NC(=O)c2nc(C#N)c[nH]2)CC1 [Compound 56, 4-Cyano-1H-imidazole-2-carboxylic acid [6-(4,4-dimethyl-cyclohex-1-enyl)-1′-(2-methanesulfonyl-ethyl)-1′,2′,3′,4′,5′,6′-hexhydro-[2,4′]bipyridinyl-5-yl]-amide trifluoroacetic acid salt]",500
6,"CS(=O)(=O)CCN1CCC(c2ccc(NC(=O)c3ncc(C#N)[nH]3)c(C3=CCCCC3)n2)CC1 [Compound 58, 5-Cyano-1H-imidazole-2-carboxylic acid [6-cyclohex-1-enyl-1′-(2-methanesulfonyl-ethyl)-1′,2′,3′,4′,5′,6′-hexahydro-[2,4′]bipyridinyl-5-yl]-amide]",1000

# — patent publication US8697716B2, “Method of inhibiting C-KIT kinase” (Janssen Pharmaceutica NV, priority 2006, dated 2014)
